In the NIST ThermoML archive (doi:10.1021/je401080p):
Numbers after ± are expanded uncertainties.

Legend:
[1] = Liquid, Rate of evaporation
[2] = Boiling temperature at pressure P; conditions: 1.1 kPa, Liquid

CCCCCCCCCC(=O)OCC(O)CO (stereo not drawn) [2,3-dihydroxypropyl decanoate]
vapor or sublimation pressure ([1]; 478.69 K): 1.1 ± 0.2 kPa
vapor or sublimation pressure ([1]; 482.79 K): 1.5 ± 0.2 kPa
vapor or sublimation pressure ([1]; 491.77 K): 2.5 ± 0.3 kPa
vapor or sublimation pressure ([1]; 497.13 K): 3.1 ± 0.6 kPa
vapor or sublimation pressure ([1]; 498.31 K): 3.6 ± 0.4 kPa
vapor or sublimation pressure ([1]; 501.31 K): 4.3 ± 0.4 kPa
vapor or sublimation pressure ([1]; 511.21 K): 6.8 ± 0.7 kPa
vapor or sublimation pressure ([1]; 519.1 K): 10.1 ± 1 kPa
vapor or sublimation pressure ([1]; 524.41 K): 13.2 ± 1.2 kPa

CCCCCCCC(=O)OCC(O)CO (stereo not drawn) [2,3-dihydroxypropyl octanoate]
vapor or sublimation pressure ([1]; 462.66 K): 1.1 ± 0.1 kPa
vapor or sublimation pressure ([1]; 468.91 K): 1.5 ± 0.2 kPa
vapor or sublimation pressure ([1]; 479.02 K): 2.5 ± 0.2 kPa
vapor or sublimation pressure ([1]; 484.24 K): 3.1 ± 0.4 kPa
vapor or sublimation pressure ([1]; 485.63 K): 3.6 ± 0.3 kPa
vapor or sublimation pressure ([1]; 490.19 K): 4.3 ± 0.4 kPa
vapor or sublimation pressure ([1]; 498.91 K): 6.8 ± 0.6 kPa
vapor or sublimation pressure ([1]; 507.96 K): 10.1 ± 0.9 kPa
vapor or sublimation pressure ([1]; 514.64 K): 13.2 ± 1.2 kPa

CCCCCCCCCC(=O)OCC(O)COC(=O)CCCCCCCCC [2-hydroxypropane-1,3-diyl bis(decanoate)]
vapor or sublimation pressure ([1]; 535.66 K): 1 ± 0.1 kPa
vapor or sublimation pressure ([1]; 538.32 K): 1.1 ± 0.2 kPa
vapor or sublimation pressure ([1]; 544.06 K): 1.5 ± 0.2 kPa
vapor or sublimation pressure ([1]; 554.25 K): 2.5 ± 0.2 kPa
vapor or sublimation pressure ([1]; 558.74 K): 3.1 ± 0.3 kPa
vapor or sublimation pressure ([1]; 562.37 K): 3.6 ± 0.4 kPa
vapor or sublimation pressure ([1]; 565.39 K): 4.3 ± 0.5 kPa

Cc1c(C)c2c(c(C)c1O)CC[C@@](C)(CCC[C@H](C)CCC[C@H](C)CCCC(C)C)O2 [(+)-α-tocopherol]
Boiling temperature at pressure P ([2]; Rate of evaporation): 276.11 ± 8.4 °C

Cc1cc(O)c(C)c2c1O[C@](C)(CCC[C@H](C)CCC[C@H](C)CCCC(C)C)CC2 [(R,R,R)-β-tocopherol]
Boiling temperature at pressure P ([2]; DSC): 279.58 ± 2.9 °C

Cc1c(O)cc2c(c1C)O[C@](C)(CCC[C@H](C)CCC[C@H](C)CCCC(C)C)CC2 [(R,R,R)-γ-tocopherol]
Boiling temperature at pressure P ([2]; DSC): 274.70 ± 4.7 °C

CCCCCCCC(=O)OCC(O)COC(=O)CCCCCCC [glycerol 1,3-dicaprylate]
vapor or sublimation pressure ([1]; 511.93 K): 1.1 ± 0.2 kPa
vapor or sublimation pressure ([1]; 517.23 K): 1.5 ± 0.2 kPa
vapor or sublimation pressure ([1]; 529.42 K): 2.5 ± 0.2 kPa
vapor or sublimation pressure ([1]; 533.36 K): 3.1 ± 0.3 kPa
vapor or sublimation pressure ([1]; 538.14 K): 3.6 ± 0.3 kPa
vapor or sublimation pressure ([1]; 541.18 K): 4.3 ± 0.4 kPa
vapor or sublimation pressure ([1]; 552.59 K): 6.8 ± 0.5 kPa
vapor or sublimation pressure ([1]; 560.35 K): 10.1 ± 0.9 kPa
vapor or sublimation pressure ([1]; 567.73 K): 13.2 ± 1.2 kPa

Cc1cc(O)cc2c1OC(C)(CCCC(C)CCCC(C)CCCC(C)C)CC2 (stereo not drawn) [ω-tocopherol]
Boiling temperature at pressure P ([2]; DSC): 279.5 ± 6.6 °C
